In the supplement of paper PMC11061612:

Legend:
[1] = tested on: MES-SA (Other Solid Carcinomas); experiment: combination Emax (second highest fraction inhibited in the dose matrix, 72 h); higher = more inhibition; extreme values may be limits of the assay
Procedure, shortened: (§1)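 Cell lines in DMEM/F12 or RPMI with 10% FBS were plated in 1536-well plates, held 24 hours at 37°C, 5% CO2, then given two-drug dose matrices for 72 hours (DMSO typically 0.2%). Viability was read by CellTiter-Glo 2.0 luminescence and scaled as inhibition from 0 (vehicle wells) to 1 (blank wells). Combination Emax is the second-highest inhibition in the matrix; Bliss excess is observed combination effect minus expected EA + EB − EA·EB, EA and EB being single-agent effects.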

H4 (Low Grade Glioma) = experiment: as above
Procedure, shortened: as §1

[2] = tested on: EKVX (Non-Small Cell Lung Carcinoma); experiment: as above
Procedure, shortened: as §1

[3] = tested on: KG-1 (Acute Myeloid Leukemia); experiment: as above
Procedure, shortened: as §1

[4] = tested on: SK-UT-1 (Other Solid Carcinomas); experiment: as above
Procedure, shortened: as §1

[5] = tested on: HOP-92 (Non-Small Cell Lung Carcinoma); experiment: as above
Procedure, shortened: as §1

HuO9 (Osteosarcoma) = experiment: Bliss excess, mean over the matrix (fraction); higher = more synergy
Procedure, shortened: as §1

[6] = tested on: MEG-01 (Chronic Myelogenous Leukemia); experiment: as above
Procedure, shortened: as §1

[7] = tested on: KG-1 (Acute Myeloid Leukemia); experiment: as above
Procedure, shortened: as §1

EW-22 (Ewing's Sarcoma) = experiment: as above
Procedure, shortened: as §1

SK-MEL-1 (Melanoma) = experiment: as above
Procedure, shortened: as §1

[8] = tested on: PA-TU-8902 (Pancreatic Carcinoma); experiment: as above
Procedure, shortened: as §1

[9] = tested on: DOK (Oral Cavity Carcinoma); experiment: as above
Procedure, shortened: as §1

CS1 (Chondrosarcoma) = experiment: as above
Procedure, shortened: as §1

[10] = tested on: HOP-92 (Non-Small Cell Lung Carcinoma); experiment: as above
Procedure, shortened: as §1

[11] = tested on: ETK-1 (Biliary Tract Carcinoma); experiment: as above
Procedure, shortened: as §1

HCC38 (Breast Carcinoma) = experiment: as above
Procedure, shortened: as §1

[12] = tested on: JHH-6 (Hepatocellular Carcinoma); experiment: as above
Procedure, shortened: as §1

[13] = tested on: BICR78 (Oral Cavity Carcinoma); experiment: as above
Procedure, shortened: as §1
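Wherever Bliss excess, mean over the matrix is given: after 72 h of two-drug dosing.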

Row | SMILES | combination Emax [1] | combination Emax (H4 (Low Grade Glioma)) | combination Emax [2] | combination Emax [3] | combination Emax [4] | combination Emax [5] | Bliss excess (HuO9 (Osteosarcoma)) | Bliss excess [6] | Bliss excess [7] | Bliss excess (EW-22 (Ewing's Sarcoma)) | Bliss excess (SK-MEL-1 (Melanoma)) | Bliss excess [8] | Bliss excess [9] | Bliss excess (CS1 (Chondrosarcoma)) | Bliss excess [10] | Bliss excess [11] | Bliss excess (HCC38 (Breast Carcinoma)) | Bliss excess [12] | Bliss excess [13]
1 | CN(C)CCCOc1ccc(-c2ccc3ncc4c(c3c2)n(C2CCOCC2)c(=O)n4C)cn1 [AZD0156] + C=CCn1c(=O)c2cnc(Nc3ccc(N4CCN(C)CC4)cc3)nc2n1-c1cccc(C(C)(C)O)n1 [AZD1775] (first compound max 1 µM, partner max 1 µM) | 0.768 | 0.791 | 0.179 | 0.357 | 0.635 | 0.631 | -0.0017 | 0.0032 | -0.0194 | 0.006 | 0.0161 | -0.0339 | -0.0143 | -0.0392 | -0.0522 | -0.0096 | -0.0963 | -0.0798 | -0.0107
2 | CN(C)CCCOc1ccc(-c2ccc3ncc4c(c3c2)n(C2CCOCC2)c(=O)n4C)cn1 [AZD0156] + CCN(CCO)CCCOc1ccc2c(Nc3cc(CC(=O)Nc4cccc(F)c4)[nH]n3)ncnc2c1 [AZD2811] (first compound max 1 µM, 7x7, partner max 1 µM) | 0.711 | 0.513 | 0.0666 | 0.328 | 0.264 | 0.383 | -0.009 | -0.0347 | -0.0001 | 0.005 | -0.0356 | -0.0223 | -0.0527 | -0.0074 | 0.0242 | -0.0087 | -0.0451 | -0.0083 | -0.047
3 | CN(C)CCCOc1ccc(-c2ccc3ncc4c(c3c2)n(C2CCOCC2)c(=O)n4C)cn1 [AZD0156] + C[C@@H]1COCCN1C2=NC(=NC(=C2)C3(CC3)[S@](=N)(=O)C)C4=C5C=CNC5=NC=C4 [AZD6738] (first compound max 1 µM, 7x7, partner max 10 µM) | 0.807 | 0.826 | 0.234 | 0.711 | 0.806 | 0.665 | 0.0236 | 0.0001 | 0.128 | 0.0143 | -0.0216 | -0.0007 | -0.0395 | 0.0088 | -0.0145 | 0.0294 | -0.0689 | -0.01 | 0.0119
4 | C=CCn1c(=O)c2cnc(Nc3ccc(N4CCN(C)CC4)cc3)nc2n1-c1cccc(C(C)(C)O)n1 [AZD1775] + C[C@@H]1COCCN1C2=NC(=NC(=C2)C3(CC3)[S@](=N)(=O)C)C4=C5C=CNC5=NC=C4 [AZD6738] (first compound max 1 µM, partner max 10 µM) | 0.852 | 0.994 | 0.327 | 0.83 | 0.906 | 0.643 | 0.0672 | -0.0005 | -0.0218 | -0.0218 | -0.0125 | 0.0315 | 0.0081 | 0.0087 | -0.0231 | 0.0427 | -0.0805 | -0.0073 | –
5 | C=CCn1c(=O)c2cnc(Nc3ccc(N4CCN(C)CC4)cc3)nc2n1-c1cccc(C(C)(C)O)n1 [AZD1775] + O=C(c1cc(Cc2n[nH]c(=O)c3ccccc23)ccc1F)N1CCN(C(=O)C2CC2)CC1 [Olaparib] (first compound max 1 µM, partner max 10 µM) | 0.696 | 0.853 | 0.256 | 0.412 | 0.625 | 0.596 | 0.0102 | -0.0188 | -0.0195 | 0.0148 | -0.0054 | -0.0327 | -0.0236 | 0.0057 | -0.0181 | -0.0292 | -0.068 | 0.02 | 0.0107
6 | CCN(CCO)CCCOc1ccc2c(Nc3cc(CC(=O)Nc4cccc(F)c4)[nH]n3)ncnc2c1 [AZD2811] + C=CCn1c(=O)c2cnc(Nc3ccc(N4CCN(C)CC4)cc3)nc2n1-c1cccc(C(C)(C)O)n1 [AZD1775] (first compound max 1 µM, partner max 1 µM) | 0.767 | 0.782 | 0.17 | 0.436 | 0.765 | 0.646 | 0.0204 | -0.0323 | 0.0591 | 0.0527 | -0.0323 | -0.006 | -0.0017 | 0.0264 | -0.0161 | 0.0395 | -0.0672 | 0.0092 | 0.0338
7 | CCN(CCO)CCCOc1ccc2c(Nc3cc(CC(=O)Nc4cccc(F)c4)[nH]n3)ncnc2c1 [AZD2811] + C[C@@H]1COCCN1C2=NC(=NC(=C2)C3(CC3)[S@](=N)(=O)C)C4=C5C=CNC5=NC=C4 [AZD6738] (first compound max 1 µM, 7x7, partner max 10 µM) | 0.654 | 0.808 | 0.261 | 0.699 | 0.816 | 0.626 | -0.0491 | -0.0203 | -0.0332 | -0.0503 | -0.0409 | -0.0532 | -0.0502 | -0.0842 | 0.0305 | -0.0627 | -0.0372 | -0.0342 | -0.0215
